Columns and labels:
[1] = target: T1, P2X7 receptor (Mus musculus, UniProt Q9Z1M0); assay: Screen Quest Fluo-8 No Wash Calcium Assay (Bz-ATP evoked Ca2+ influx, FLIPR); type: cell-based; details: mP2X7; HEK-293 cells stably transfected with P2X7 receptor, Bz-ATP at EC80, Fluo-8 NW; potency ranges A-D
T1 construct: mP2X7 (IC50; nM); other: mP2X7; HEK-293 cells stably transfected with P2X7 receptor, Bz-ATP at EC80, Fluo-8 NW; potency
T1 sequence (Q9Z1M0 1-595): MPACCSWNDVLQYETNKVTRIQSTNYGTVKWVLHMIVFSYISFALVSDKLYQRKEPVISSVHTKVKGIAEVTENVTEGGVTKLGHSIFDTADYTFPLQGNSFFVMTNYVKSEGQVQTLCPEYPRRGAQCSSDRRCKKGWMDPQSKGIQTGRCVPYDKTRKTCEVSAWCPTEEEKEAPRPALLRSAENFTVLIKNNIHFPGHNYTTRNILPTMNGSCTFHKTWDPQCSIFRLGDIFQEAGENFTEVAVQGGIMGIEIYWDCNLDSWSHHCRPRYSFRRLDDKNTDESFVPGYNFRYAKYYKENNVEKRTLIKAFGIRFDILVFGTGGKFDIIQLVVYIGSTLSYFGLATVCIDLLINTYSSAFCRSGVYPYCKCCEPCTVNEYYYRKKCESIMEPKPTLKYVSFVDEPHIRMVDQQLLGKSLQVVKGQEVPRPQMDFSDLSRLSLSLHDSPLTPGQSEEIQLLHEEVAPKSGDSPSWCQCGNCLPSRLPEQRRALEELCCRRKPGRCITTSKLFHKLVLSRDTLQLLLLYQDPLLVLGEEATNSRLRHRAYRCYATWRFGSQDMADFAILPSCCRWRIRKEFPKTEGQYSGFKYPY
Procedure, shortened: (§1)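 HEK-293 cells stably expressing P2X7 were loaded with Fluo-8 NW for 1 h at RT, then given compound, and 5 min later Bz-ATP at EC80. Fluorescence was read by FLIPR in low divalent cation buffer (0.3 mM Ca2+, 0 mM Mg2+). IC50 came from percent inhibition relative to reference antagonist A438079.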

[2] = target: T2, P2X7 receptor (Rattus norvegicus, UniProt Q64663); assay: as above; type: cell-based; details: rP2X7; HEK-293 cells stably transfected with P2X7 receptor, Bz-ATP at EC80, Fluo-8 NW; potency ranges A-D
T2 construct: rP2X7 (IC50; nM); other: rP2X7; HEK-293 cells stably transfected with P2X7 receptor, Bz-ATP at EC80, Fluo-8 NW; potency
T2 sequence (Q64663 1-595): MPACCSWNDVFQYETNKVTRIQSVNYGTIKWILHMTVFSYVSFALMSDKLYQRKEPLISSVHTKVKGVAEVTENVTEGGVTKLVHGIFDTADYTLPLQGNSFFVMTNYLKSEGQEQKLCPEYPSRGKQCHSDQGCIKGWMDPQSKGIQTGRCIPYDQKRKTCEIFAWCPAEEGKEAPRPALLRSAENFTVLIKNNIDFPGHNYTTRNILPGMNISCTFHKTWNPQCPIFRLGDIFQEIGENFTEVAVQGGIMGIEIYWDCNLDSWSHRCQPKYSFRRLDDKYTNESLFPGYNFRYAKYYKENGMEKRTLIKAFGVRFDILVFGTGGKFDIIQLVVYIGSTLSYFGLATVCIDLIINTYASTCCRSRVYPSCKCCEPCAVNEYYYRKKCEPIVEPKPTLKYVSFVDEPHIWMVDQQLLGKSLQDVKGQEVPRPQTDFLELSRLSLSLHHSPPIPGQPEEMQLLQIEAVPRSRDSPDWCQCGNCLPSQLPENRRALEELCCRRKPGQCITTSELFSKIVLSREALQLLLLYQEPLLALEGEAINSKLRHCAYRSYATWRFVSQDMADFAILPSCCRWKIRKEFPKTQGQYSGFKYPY
Procedure, shortened: as §1

Row | SMILES | IC50 [1] | IC50 [2]
1 | O=c1onc(Cc2c(F)cccc2Cl)n1CC1CCC(F)(F)C1 (racemic) [Example 128, 3-[(2-chloro-6-fluorophenyl)methyl]-4-[(3,3-difluorocyclopentyl)methyl]-4,5-dihydro-1,2,4-oxadiazol-5-one] | 200 to 1000 nM | < 200 nM
2 | O=c1onc(Cc2c(F)cccc2Cl)n1CC1CCC(F)(F)C1 (single isomer, unassigned) [Example 149, 3-(2-chloro-6-fluorobenzyl)-4-[(3,3-difluorocyclopentyl)methyl]-1,2,4-oxadiazol-5(4H)-one] | 200 to 1000 nM | < 200 nM
3 | O=c1onc(Cc2ccc(F)cc2)n1Cc1c(F)cccc1Cl [Example 1, 4-[(2-chloro-6-fluorophenyl)methyl]-3-[(4-fluorophenyl)methyl]-4,5-dihydro-1,2,4-oxadiazol-5-one] | 1000 to 10000 nM | 200 to 1000 nM
4 | Cc1cc(F)ccc1Cn1c(Cc2c(F)cccc2Cl)noc1=O [Example 25, 3-[(2-chloro-6-fluorophenyl)methyl]-4-[(4-fluoro-2-methylphenyl)methyl]-4,5-dihydro-1,2,4-oxadiazol-5-one] | 200 to 1000 nM | 200 to 1000 nM
5 | O=c1onc(Cc2c(F)cccc2Cl)n1Cc1cccc(F)c1 [Example 26, 3-[(2-chloro-6-fluorophenyl)methyl]-4-[(3-fluorophenyl)methyl]-4,5-dihydro-1,2,4-oxadiazol-5-one] | 200 to 1000 nM | < 200 nM
6 | CC(c1ccc(F)cc1)n1c(Cc2c(F)cccc2Cl)noc1=O (centres unmarked) [Example 48, 3-[(2-chloro-6-fluorophenyl)methyl]-4-[1-(4-fluorophenyl)ethyl]-4,5-dihydro-1,2,4-oxadiazol-5-one] | 200 to 1000 nM | 200 to 1000 nM
7 | O=c1onc(Cc2c(F)cccc2Cl)n1Cc1ccc(F)cc1 [Example 55, 3-[(2-chloro-6-fluorophenyl)methyl]-4-[(4-fluorophenyl)methyl]-4,5-dihydro-1,2,4-oxadiazol-5-one] | 200 to 1000 nM | 200 to 1000 nM
8 | O=c1onc(Cc2c(F)cccc2Cl)n1Cc1ccc(F)cc1Cl [Example 60, 4-[(2-chloro-4-fluorophenyl)methyl]-3-[(2-chloro-6-fluorophenyl)methyl]-4,5-dihydro-1,2,4-oxadiazol-5-one] | 1000 to 10000 nM | 1000 to 10000 nM
9 | O=c1onc(Cc2c(F)cccc2Cl)n1Cc1ccc(F)cc1F [Example 61, 3-[(2-chloro-6-fluorophenyl)methyl]-4-[(2,4-difluorophenyl)methyl]-4,5-dihydro-1,2,4-oxadiazol-5-one] | 1000 to 10000 nM | 200 to 1000 nM
10 | O=c1onc(Cc2c(F)cccc2Cl)n1Cc1ccc(Cl)cc1 [Example 65, 3-[(2-chloro-6-fluorophenyl)methyl]-4-[(4-chlorophenyl)methyl]-4,5-dihydro-1,2,4-oxadiazol-5-one] | 1000 to 10000 nM | 200 to 1000 nM
11 | O=c1onc(Cc2c(F)cccc2Cl)n1Cc1ccc(C(F)(F)F)o1 [Example 66, 3-[(2-chloro-6-fluorophenyl)methyl]-4-{[5-(trifluoromethyl)furan-2-yl]methyl}-4,5-dihydro-1,2,4-oxadiazol-5-one] | 1000 to 10000 nM | 200 to 1000 nM
12 | O=c1onc(Cc2cccc(Cl)c2Cl)n1Cc1ccc(F)cc1 [Example 71, 3-[(2,3-dichlorophenyl)methyl]-4-[(4-fluorophenyl)methyl]-4,5-dihydro-1,2,4-oxadiazol-5-one] | 1000 to 10000 nM | 1000 to 10000 nM
13 | O=c1onc(Cc2ccc(F)cc2Cl)n1Cc1ccc(F)cc1 [Example 73, 3-[(2-chloro-4-fluorophenyl)methyl]-4-[(4-fluorophenyl)methyl]-4,5-dihydro-1,2,4-oxadiazol-5-one] | 1000 to 10000 nM | 200 to 1000 nM
14 | O=c1onc(Cc2ccccc2Cl)n1Cc1ccc(F)cc1 [Example 76, 3-[(2-chlorophenyl)methyl]-4-[(4-fluorophenyl)methyl]-4,5-dihydro-1,2,4-oxadiazol-5-one] | 1000 to 10000 nM | 200 to 1000 nM
15 | O=c1onc(Cc2cccc(F)c2)n1Cc1c(F)cccc1Cl [Example 81, 4-[(2-chloro-6-fluorophenyl)methyl]-3-[(3-fluorophenyl)methyl]-4,5-dihydro-1,2,4-oxadiazol-5-one] | 1000 to 10000 nM | 200 to 1000 nM
16 | O=c1onc(Cc2c(F)cccc2Cl)n1CC1CCCCC1 [Example 82, 3-[(2-chloro-6-fluorophenyl)methyl]-4-(cyclohexylmethyl)-4,5-dihydro-1,2,4-oxadiazol-5-one] | < 200 nM | < 200 nM
17 | O=c1onc(Cc2c(F)cccc2Cl)n1CC1CCC(F)(F)CC1 [Example 84, 3-[(2-chloro-6-fluorophenyl)methyl]-4-[(4,4-difluorocyclohexyl)methyl]-4,5-dihydro-1,2,4-oxadiazol-5-one] | < 200 nM | < 200 nM
18 | O=c1onc(Cc2c(F)cccc2Cl)n1CC1CCCC1 [Example 85, 3-[(2-chloro-6-fluorophenyl)methyl]-4-(cyclopentylmethyl)-4,5-dihydro-1,2,4-oxadiazol-5-one] | 200 to 1000 nM | < 200 nM
19 | CC1(C)CCC(Cn2c(Cc3c(F)cccc3Cl)noc2=O)CC1 [Example 86, 3-[(2-chloro-6-fluorophenyl)methyl]-4-[(4,4-dimethylcyclohexyl)methyl]-4,5-dihydro-1,2,4-oxadiazol-5-one] | 200 to 1000 nM | 200 to 1000 nM
20 | CC1CCCCC1Cn1c(Cc2c(F)cccc2Cl)noc1=O (centres unmarked) [Example 87, 3-[(2-chloro-6-fluorophenyl)methyl]-4-[(2-methylcyclohexyl)methyl]-4,5-dihydro-1,2,4-oxadiazol-5-one] | 200 to 1000 nM | < 200 nM
21 | O=c1onc(Cc2c(F)cccc2Cl)n1CC1CC2CCC1C2 (centres unmarked) [Example 88, 4-{bicyclo[2.2.1]heptan-2-ylmethyl}-3-[(2-chloro-6-fluorophenyl)methyl]-4,5-dihydro-1,2,4-oxadiazol-5-one] | 200 to 1000 nM | < 200 nM
22 | O=c1onc(Cc2c(F)cccc2Cl)n1CC12CCC(CC1)C2 [Example 91, 4-{bicyclo [2.2.1]heptan-1-ylmethyl}-3-[(2-chloro-6-fluorophenyl)methyl]-4,5-dihydro-1,2,4-oxadiazol-5-one] | 200 to 1000 nM | < 200 nM
23 | O=c1onc(Cc2c(F)cccc2Cl)n1CC1CCCCCC1 [Example 92, 3-[(2-chloro-6-fluorophenyl)methyl]-4-(cycloheptylmethyl)-4,5-dihydro-1,2,4-oxadiazol-5-one] | 200 to 1000 nM | < 200 nM
24 | O=c1onc(Cc2c(F)cccc2Cl)n1CC1CCCCO1 (centres unmarked) [Example 94, 3-[(2-chloro-6-fluorophenyl)methyl]-4-(oxan-2-ylmethyl)-4,5-dihydro-1,2,4-oxadiazol-5-one] | 1000 to 10000 nM | 200 to 1000 nM
25 | O=c1onc(Cc2c(F)cccc2Cl)n1CC1(F)CCCCC1 [Example 96, 3-[(2-chloro-6-fluorophenyl)methyl]-4-[(1-fluorocyclohexyl)methyl]-4,5-dihydro-1,2,4-oxadiazol-5-one] | 200 to 1000 nM | 200 to 1000 nM
26 | O=c1onc(Cc2c(F)cccc2Cl)n1CC1CCCCC1(F)F (centres unmarked) [Example 97, 3-[(2-chloro-6-fluorophenyl)methyl]-4-[(2,2-difluorocyclohexyl)methyl]-4,5-dihydro-1,2,4-oxadiazol-5-one] | 200 to 1000 nM | < 200 nM
27 | CC1(C)CCCCC1Cn1c(Cc2c(F)cccc2Cl)noc1=O (centres unmarked) [Example 99, 3-[(2-chloro-6-fluorophenyl)methyl]-4-[(2,2-dimethylcyclohexyl)methyl]-4,5-dihydro-1,2,4-oxadiazol-5-one] | 200 to 1000 nM | 200 to 1000 nM
28 | O=c1onc(Cc2ccc(F)cc2Cl)n1CC1CCCCC1 [Example 114, 3-[(2-chloro-4-fluorophenyl)methyl]-4-(cyclohexylmethyl)-4,5-dihydro-1,2,4-oxadiazol-5-one] | 200 to 1000 nM | < 200 nM

Reference: US11623919B2, “Heterocyclic P2X7 antagonists” (AXXAM S.P.A., priority 2017, dated 2023)
